Laboratory results taken from publication PMC5216056 (Nature Communications, 2017).
Where two headings read alike, the source gives them in different places.

Legend:
[1] = target: T1, GR (h) (Homo sapiens, UniProt P04150); assay: CEREP panel; type: binding; details: for % inhibition GR (h): 10 µM
T1 construct: CEREP (contract assay)
T1 sequence (P04150 1-777): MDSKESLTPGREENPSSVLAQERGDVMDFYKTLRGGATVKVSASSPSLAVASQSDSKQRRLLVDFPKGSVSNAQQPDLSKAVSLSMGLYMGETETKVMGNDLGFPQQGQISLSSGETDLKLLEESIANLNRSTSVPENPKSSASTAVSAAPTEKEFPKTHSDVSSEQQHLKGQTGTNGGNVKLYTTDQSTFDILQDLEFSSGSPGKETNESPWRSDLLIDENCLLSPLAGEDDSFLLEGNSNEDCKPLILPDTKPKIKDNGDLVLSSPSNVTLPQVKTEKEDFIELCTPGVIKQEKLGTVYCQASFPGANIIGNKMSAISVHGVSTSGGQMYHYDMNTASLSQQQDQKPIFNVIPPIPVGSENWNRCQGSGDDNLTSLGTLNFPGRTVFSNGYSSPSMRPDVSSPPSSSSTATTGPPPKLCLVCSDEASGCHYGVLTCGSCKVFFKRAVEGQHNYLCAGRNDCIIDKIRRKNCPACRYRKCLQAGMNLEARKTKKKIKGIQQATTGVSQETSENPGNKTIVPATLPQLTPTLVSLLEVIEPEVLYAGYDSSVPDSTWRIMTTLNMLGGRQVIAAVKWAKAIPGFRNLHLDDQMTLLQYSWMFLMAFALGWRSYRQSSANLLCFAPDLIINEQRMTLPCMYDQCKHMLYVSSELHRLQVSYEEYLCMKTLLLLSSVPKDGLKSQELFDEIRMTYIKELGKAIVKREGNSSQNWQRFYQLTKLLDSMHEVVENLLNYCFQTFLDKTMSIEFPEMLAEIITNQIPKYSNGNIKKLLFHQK

[2] = target: T2, hCB2R (Homo sapiens, UniProt P34972); assay: cell-based; type: cell-based; design: expressed in transfected cells; host or cells: Flp-In-293 (Invitrogen #R750-07), pcDNA5/FRT
[3] = target: T2, hCB2R; assay: biochemical; type: biochemical; design: expressed in transfected cells; host or cells: Flp-In-293 (Invitrogen #R750-07), pcDNA5/FRT
[4] = target: T3, human NAPE-PLD (Homo sapiens, UniProt Q6IQ20); assay: NAPE-PLD inhibition; type: biochemical
T3 construct: Full length human cDNA NAPE-PLD was obtained from Natsuo Ueda; expressed in transfected cells; host or cells: HEK293T (transient), membrane fraction
Experimental: Full length human cDNA NAPE-PLD was obtained from Natsuo Ueda[58] and cloned into mammalian expression vector pcDNA3.1, containing a C-terminal Flag-tag and genes for ampicillin and neomycin resistance. All plasmids were grown in XL-10 Z-competent cells and prepped (Maxi Prep, Qiagen). Sequence analysis for the confirmation of the sequences was performed at the Leiden Genome Technology Centre.
HEK293T cells (source: Dutch Cancer Institute) were cultured at 37 °C and 7% CO2 in DMEM with glutamax, penicillin (100 μg ml^−1), streptomycin (100 μg ml^−1) and 10% New Born Calf Serum iron supplemented (Hyclone SH30072.03). Cells were passaged twice a week to appropriate confluence. Twenty-four hours before transfection 10^7 cells were seeded on a 15 cm dish. Two hours before transfection, the medium was refreshed. Transfection is performed with PEI in a ratio of 3:1 with human NAPE-PLD or Mock pcDNA3.1Neo, 20 μg per dish. Medium is refreshed after 24 h and cells are harvested after 72 h. Cell suspensions are centrifuged at 1,000g for 10 min, supernatant removed and pellets frozen at −80 °C until further use.
Cell pellets are re-suspended in lysis buffer 1: 20 mM Hepes, 2 mM DTT, 0.25 M sucrose, 1 mM MgCl2, 2.5 U ml^−1 benzonase and incubated 30 min on ice. The cytosolic fraction (supernatant) is separated from the membranes by ultra-centrifugation (32,000 rpm for 30 min 100,000g). The pellet is resuspended in buffer 2: 20 mM Hepes, 2 mM DTT (membrane fraction). All samples are stored at −80 °C. Enzyme concentrations are determined using a Bradford assay.
The membrane protein fraction from transient overexpression of NAPE-PLD in HEK293T cells was diluted to 0.4 mg ml^−1 in assay buffer: 50 mM Tris-HCl (pH 7.5), 0.02% Triton X-100, 150 mM NaCl (ref. [60]). […] Relevant concentrations of compounds are prepared in DMSO. The assay is performed in a dark Greiner 96-well plate, end volume 100 μl. The compound or DMSO is incubated with membrane protein lysate (final concentration 0.04 mg ml^−1) for 30 min at 37 °C. A sample without membrane protein lysate is incorporated for background subtraction. Then, substrate is added (final concentration 1 μM) and the measurement is started immediately on a TECAN infinite M1000 pro at 37 °C (excitation 485 nm, emission 535 nm), scanning every 2 min for 1 h.

[5] = tested on: AEA reuptake in HaCaT cells; assay: cells; type: cell-based, human; details: for AEA reuptake % inhibition, effect at 10 µM, HaCaT cells: 10 µM (values marked *); for IC50: read-out: AEA reuptake IC50 (95% CI) HaCaT cells; for AEA reuptake Efficacy (% inhibition) HaCaT cells: from dose-response
[6] = target: T2, hCB2R; assay: cell-based; type: cell-based
[7] = target: T4, 5-HT2B (h) (Homo sapiens, UniProt P41595); assay: CEREP panel; type: binding; details: for % inhibition 5-HT2B (h): 10 µM
T4 construct: CEREP (contract assay)

[8] = target: mCB2R (Mus musculus, UniProt P47936); assay: biochemical; type: biochemical; design: from tissue; host or cells: spleen of male C57BL/6J mice; details: for pEC50 ± SEM cAMP mCB2R: mouse spleen
[9] = for Pct acceptor / Pct donor / Pct membrane: PAMPA; for Pct membrane: compound found in membranes; for Pampa Peff: membrane permeation coefficient
[10] = normalized to 10 µM CP55940, negative = inverse agonism
[11] = normalized to 10 µM CP55940, negative = inhibition of EC80 of CP55940
[12] = antagonists in presence of EC80 of CP55940

T3 sequence (Q6IQ20 whole entry): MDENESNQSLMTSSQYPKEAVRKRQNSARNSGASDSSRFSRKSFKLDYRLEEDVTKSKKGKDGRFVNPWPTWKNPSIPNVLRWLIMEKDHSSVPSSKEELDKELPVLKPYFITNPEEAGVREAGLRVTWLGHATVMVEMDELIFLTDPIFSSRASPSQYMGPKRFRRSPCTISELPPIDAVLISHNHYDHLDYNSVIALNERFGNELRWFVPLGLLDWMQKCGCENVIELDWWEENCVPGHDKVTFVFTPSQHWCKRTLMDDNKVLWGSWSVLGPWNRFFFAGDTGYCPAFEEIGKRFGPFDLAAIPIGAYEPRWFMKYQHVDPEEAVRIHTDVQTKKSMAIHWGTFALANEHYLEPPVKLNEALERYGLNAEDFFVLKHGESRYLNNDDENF
Chain of mCB2R (P47936 whole entry): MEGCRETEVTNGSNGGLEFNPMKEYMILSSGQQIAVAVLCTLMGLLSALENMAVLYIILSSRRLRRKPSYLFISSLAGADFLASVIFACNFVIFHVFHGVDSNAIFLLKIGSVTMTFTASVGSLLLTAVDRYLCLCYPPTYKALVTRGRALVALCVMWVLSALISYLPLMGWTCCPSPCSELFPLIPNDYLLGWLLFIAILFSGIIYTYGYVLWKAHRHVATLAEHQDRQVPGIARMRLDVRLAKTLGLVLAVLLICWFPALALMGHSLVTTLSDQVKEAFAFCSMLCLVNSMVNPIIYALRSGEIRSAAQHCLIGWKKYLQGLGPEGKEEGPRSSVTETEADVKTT
T2 sequence (P34972 whole entry): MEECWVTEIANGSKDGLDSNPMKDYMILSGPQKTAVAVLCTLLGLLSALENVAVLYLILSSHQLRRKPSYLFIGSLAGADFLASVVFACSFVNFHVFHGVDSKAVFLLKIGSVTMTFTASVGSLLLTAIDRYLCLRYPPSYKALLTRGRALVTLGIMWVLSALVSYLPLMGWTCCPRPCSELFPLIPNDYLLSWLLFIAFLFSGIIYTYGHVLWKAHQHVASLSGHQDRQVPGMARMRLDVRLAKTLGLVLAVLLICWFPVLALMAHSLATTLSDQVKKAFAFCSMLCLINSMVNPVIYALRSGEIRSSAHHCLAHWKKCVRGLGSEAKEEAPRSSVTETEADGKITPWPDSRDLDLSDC
T4 sequence (P41595 whole entry): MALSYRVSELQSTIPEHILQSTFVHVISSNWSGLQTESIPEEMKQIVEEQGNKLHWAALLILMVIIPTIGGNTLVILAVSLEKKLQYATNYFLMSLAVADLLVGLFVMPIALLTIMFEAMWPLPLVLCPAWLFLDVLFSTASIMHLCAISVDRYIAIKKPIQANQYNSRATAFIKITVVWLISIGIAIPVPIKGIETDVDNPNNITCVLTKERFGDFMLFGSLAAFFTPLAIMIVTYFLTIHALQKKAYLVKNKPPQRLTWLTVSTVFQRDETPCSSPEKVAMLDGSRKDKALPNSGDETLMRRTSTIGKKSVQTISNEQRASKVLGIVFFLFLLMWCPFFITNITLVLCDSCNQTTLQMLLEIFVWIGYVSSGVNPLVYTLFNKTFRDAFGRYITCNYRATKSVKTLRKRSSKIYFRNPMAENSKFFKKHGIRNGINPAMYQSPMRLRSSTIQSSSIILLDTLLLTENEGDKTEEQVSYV

Molecule	% inhibition GR (h) [1] [%]	Emax ± SEM cAMP hCB2R ([2]; normalized to 10 µM CP55940) [%]	Emax ± SEM GTPγS hCB2R [3, 10] [%]	NAPE-PLD % inhibition at 10 µM ± SD [4] [%]	AEA reuptake % inhibition, effect at 10 µM, HaCaT cells [5] [%]	IC50 [5] [µM]	Emax ± SEM β-AR recruitment hCB2R [6, 11] [%]	% inhibition 5-HT2B (h) [7] [%]	Emax cAMP mCB2R ([8]; normalized to 10 µM CP55940) [%]	Emax ± SEM cAMP hCB2R [2]	Emax ± SEM GTPγS hCB2R [3]	pEC50 ± SEM GTPγS hCB2R [3]	Pct acceptor [9] [%]	Pct donor [9] [%]	Pct membrane [9] [%]	Pampa Peff [9] [cm/s*10-6]	Emax ± SEM β-AR recruitment hCB2R [6]	pEC50 ± SEM cAMP mCB2R [8]	AEA reuptake Efficacy (% inhibition) HaCaT cells [5] [%]	also measured
SR144528	9	-151 ± 10	-29 ± 2	8 ± 10	20	> 10	-111 ± 3	22	-100	–	–	–	–	–	–	–	–	–	–	–
CCCC(C)(C)c1ccc2c(c1)OC(C)(C)[C@@H]1CC=C(C)C[C@@H]21 [JWH133]	7	–	–	3 ± 4	39	> 10	–	3	–	98 ± 1	61 ± 15	6.96 ± 0.35	2.3	36.1	61.7	1.86	62 ± 11	7.75 ± 0.33	–	pEC50 ± SEM cAMP hCB2R [2]: 8.38 ± 0.09; hCB2R Selectivity GTPγS [3]: 0.4; CB2R Selectivity β-AR recruitment [6]: 275 fold; pEC50 ± SEM β-AR recruitment hCB2R [6]: 7.81 ± 0.22; Emax cAMP mCB2R [8]: 95
COc1ccc(C(=O)c2c(C)n(CCN3CCOCC3)c3cc(I)ccc23)cc1 [AM630]	38	–	–	-4 ± 11	–	4.18	–	65	–	-152 ± 13	-22 ± 2	6.75 ± 0.20	0.37	35.4	64.3	0.2	-124 ± 6	7.93 ± 0.3	65	pEC50 ± SEM cAMP hCB2R [2]: 7.56 ± 0.05; pEC50 ± SEM β-AR recruitment hCB2R [6]: 6.15 ± 0.08; Emax cAMP mCB2R [8]: -65
Cc1ccc2c(c1)Cc1c(C(=O)NN3CCCCC3)nn(-c3ccc(Cl)cc3Cl)c1-2 [Gp-1a]	71	-85 ± 10	-14 ± 5	3 ± 5	–	3.27	-147 ± 11	29	-25	–	–	7.09 ± 0.07	0	29.7	70.3	0	–	7.25 ± 0.32	90	pEC50 ± SEM cAMP hCB2R [2, 12]: 7.52 ± 0.14; pEC50 ± SEM β-AR recruitment hCB2R [6, 12]: 5.86 ± 0.16; CB2R Selectivity cAMP (mouse) ([8]; 10^(pEC50 CB2R-pEC50 CB1R)): 25 fold
CCCCCCC(C)(C)c1cc(OC)c(C2=C[C@H]3CC[C@]2(CO)C3(C)C)c(OC)c1 [HU910]	4	98 ± 1	61 ± 13	8 ± 13	38	> 10	48 ± 6	87	67	–	–	7.27 ± 0.12	1	42	57	0.45	–	8.98 ± 0.38	–	pEC50 ± SEM cAMP hCB2R [2, 12]: 8.41 ± 0.13; pEC50 ± SEM β-AR recruitment hCB2R [6, 12]: 7.75 ± 0.03
CCCCCCC(C)(C)c1cc(OC)c([C@@H]2C=C(CO)[C@@H]3C[C@H]2C3(C)C)c(OC)c1 [HU308]	–	–	–	–	–	–	–	–	–	–	–	–	2.8	23.1	74.3	2.53	–	–	69	inhibition at 10 µM ([1]; read-out: % inhibition GR (h)): 4%; Emax ([2]; read-out: Emax ± SEM cAMP hCB2R): 98 ± 1%; Emax ([3]; read-out: Emax ± SEM GTPγS hCB2R): 97 ± 12%; inhibition at 10 µM ([4]; read-out: NAPE-PLD % inhibition at 10 µM ± SD): 2 ± 7%; IC50 ([5]; Homo sapiens, HaCaT): 2.21 µM; Emax ([6]; read-out: Emax ± SEM β-AR recruitment hCB2R): 57 ± 10%; inhibition at 10 µM ([7]; read-out: % inhibition 5-HT2B (h)): 28%; EC50 [8]: 0.00372 µM; Emax ([8]; read-out: Emax cAMP mCB2R): 56%
Cc1c(C(=O)NN2CCCCC2)nn(-c2ccc(Cl)cc2Cl)c1-c1ccc(I)cc1 [AM251]	84	–	–	10 ± 12	–	–	–	28	–	-175 ± 19	-29 ± 2	–	–	–	–	–	-104 ± 8	–	–	–
